This note sets out measurements from ChEMBL document CHEMBL1629516, “Novel insights for dihydroorotate dehydrogenase class 1A inhibitors discovery” (Eur J Med Chem, 2010).

The structures appear in SMILES notation. Active and inactive are the calls of the source. No cut-off for these calls is given here.

One assay relates to Trypanosoma cruzi. Briefly: (§1) Inhibition of Trypanosoma cruzi dihydroorotate dehydrogenase by isothermal titration calorimetry.
Settings: not given
As for `O=C1OCc2c1[nH]c(=O)[nH]c2=O`, the “Ki(app)” value is “inactive”.
Regarding `O=c1[nH]c(=O)c2nn[nH]c2[nH]1`, the “Ki(app)” value is “inactive”.
With `CCCCOC(=O)c1cc(O)nc(O)n1`, the “Ki(app)” value was “inactive”.
On the same count and under the same terms, the result for `Oc1nc(O)c2nc(O)[nH]c2n1` reads “inactive”.

Target in another assay: not listed separately
The assay is described as §1. Conditions: read-out: Ki(app).
`O=C(O)c1nc(=O)[nH]c(=O)[nH]1` [OTERACIL]: the Ki was 21.7 µM.
On the same count and under the same terms, the result for `O=C(O)c1[nH]c(=O)[nH]c(=O)c1F` reads 19.3 µM.
On the same count and under the same terms, the result for `CN(C)Cc1c(C(=O)O)[nH]c(=O)[nH]c1=O` reads 300 µM; that for `O=C(O)c1cc(=O)[nH]c(=O)[nH]1` [OROTIC ACID], 72.2 µM.
`Nc1c(C(=O)O)[nH]c(=O)[nH]c1=O`: the Ki came to 94.8 µM.
The same measure, in the same setting: the result for `O=C(O)c1[nH]c(=O)[nH]c(=O)c1[N+](=O)[O-]` reads 139 µM.

Target in a further assay: not listed separately
Kind of assay: Inhibition of Leishmania major dihydroorotate dehydrogenase by isothermal titration calorimetry. Conditions: read-out: Ki(app). (Isothermal titration calorimetry measures the heat released or taken up as one component is titrated into another.)
On to `Nc1c(C(=O)O)[nH]c(=O)[nH]c1=O`, for which the Ki stood at 82.8 µM.
Regarding `O=C(O)c1[nH]c(=O)[nH]c(=O)c1[N+](=O)[O-]`, the Ki worked out at 213 µM.
